From patent US20230405008A1, “TREATMENT OF HEMATOLOGICAL MALIGNANCIES WITH INHIBITORS OF MENIN” (Kura Oncology, Inc., priority 2020, published 2023)

Biological target: T1, menin-MLL interaction (Homo sapiens, UniProt O00255)
T1 sequence (O00255 1-610): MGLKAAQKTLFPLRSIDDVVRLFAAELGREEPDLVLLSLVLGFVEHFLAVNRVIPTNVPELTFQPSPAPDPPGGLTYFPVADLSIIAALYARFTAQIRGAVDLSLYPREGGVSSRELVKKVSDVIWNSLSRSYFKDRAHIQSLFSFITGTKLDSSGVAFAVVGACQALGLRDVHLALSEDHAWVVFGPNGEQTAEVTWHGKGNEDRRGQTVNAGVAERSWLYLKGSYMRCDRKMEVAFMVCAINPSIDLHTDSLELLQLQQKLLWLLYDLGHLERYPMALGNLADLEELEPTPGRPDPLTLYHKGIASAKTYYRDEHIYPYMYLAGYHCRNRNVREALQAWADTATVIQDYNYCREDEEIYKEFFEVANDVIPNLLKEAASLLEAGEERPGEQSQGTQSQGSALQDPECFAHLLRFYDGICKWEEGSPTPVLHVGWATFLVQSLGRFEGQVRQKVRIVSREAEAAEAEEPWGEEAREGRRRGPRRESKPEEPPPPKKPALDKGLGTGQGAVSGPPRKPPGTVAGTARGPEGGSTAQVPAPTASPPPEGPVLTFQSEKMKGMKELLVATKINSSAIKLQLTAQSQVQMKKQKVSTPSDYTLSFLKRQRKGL
Experiment: Fluorescence polarization (FP) competition assay
Type: binding
Settings: menin / MLL 4-43 peptide

`C=CC(=O)Nc1ccc(C(Cn2c(C#N)cc3c(C)c(CN4CCC(Nc5ncnc6sc(CC(F)(F)F)cc56)CC4)ccc32)OC)cc1` (stereo not shown) [Compound I-1] and `Cc1c(CN2CCC(Nc3ncnc4sc(CC(F)(F)F)cc34)CC2)ccc2c1cc(C#N)n2C[C@@H](C)N1CCN(C=O)CC1` [Compound I-67] fall in the same range of IC50: 0.25 to 1 µM for the first, 0.25 to 1 µM for the second.

`Cc1c(CN2CCC(Nc3ncnc4sc(CC(F)(F)F)cc34)CC2)ccc2c1cc(C#N)n2CC(C)C1CCN(S(C)(=O)=O)CC1` (stereo not shown) [Compound I-3] and `Cc1c(CN2CCC(Nc3ncnc4sc(CC(F)(F)F)cc34)CC2)ccc2c1cc(C#N)n2CC(C(C)C)N1CCN(S(C)(=O)=O)CC1` (stereo not shown) [Compound I-24] fall in the same range of IC50: 0.25 to 1 µM for the first, 0.25 to 1 µM for the second.

`CC[C@H]1CN(C(C)Cn2c(C#N)cc3c(C)c(CN4CCC(Nc5ncnc6sc(CC(F)(F)F)cc56)CC4)ccc32)CCN1S(C)(=O)=O` (stereo partly shown) [Compound I-26] and `Cc1c(CN2CCC(Nc3ncnc4sc(CC(F)(F)F)cc34)CC2)ccc2c1cc(C#N)n2CC(C)N1CCN(S(C)(=O)=O)C(C(=O)O)C1` (stereo not shown) [Compound I-82] fall in the same range of IC50: 0.25 to 1 µM for the first, 0.25 to 1 µM for the second.

`Cc1c(CN2CCC(Nc3ncnc4sc(CC(F)(F)F)cc34)CC2)ccc2c1cc(C#N)n2CCN1CC(C)N(S(C)(=O)=O)CC1C` (stereo not shown) [Compound I-44] and `Cc1c(CN2CCC(Nc3ncnc4sc(CC(F)(F)F)cc34)CC2)ccc2c1cc(C#N)n2CCN1CCN(S(C)(=O)=O)CC1C` (stereo not shown) [Compound I-45] fall in the same range of IC50: 0.25 to 1 µM for the first, 0.25 to 1 µM for the second.

`Cc1c(CN2CCC(Nc3ncnc4sc(CC(F)(F)F)cc34)CC2)ccc2c1cc(C#N)n2CCN1CCN(C2CCN(S(C)(=O)=O)C2)CC1` (stereo not shown) [Compound I-52] and `Cc1c(CN2CCC(Nc3ncnc4sc(CC(F)(F)F)cc34)CC2)ccc2c1cc(C#N)n2CCN1CC2(CCN(S(C)(=O)=O)CC2)C1` [Compound I-56] fall in the same range of IC50: 0.25 to 1 µM for the first, 0.25 to 1 µM for the second.

`Cc1c(CN2CCC(Nc3ncnc4sc(CC(F)(F)F)cc34)CC2)ccc2c1cc(C#N)n2CCN1CCC2(CCN(S(C)(=O)=O)C2)C1` (stereo not shown) [Compound I-53] and `Cc1c(CN2CCC(Nc3ncnc4sc(CC(F)(F)F)cc34)CC2)ccc2c1cc(C#N)n2CCN1CC2(CCN(S(C)(=O)=O)C2)C1` [Compound I-58] fall in the same range of IC50: 0.25 to 1 µM for the first, 0.25 to 1 µM for the second.

First: Cc1c(CN2CCC(Nc3ncnc4sc(CC(F)(F)F)cc34)CC2)ccc2c1cc(C#N)n2CCN1CCC2(CC1)CC(S(C)(=O)=O)C2 [Compound I-54]
Second: Cc1c(CN2CCC(Nc3ncnc4sc(CC(F)(F)F)cc34)CC2)ccc2c1cc(C#N)n2CCN1CC2(C1)CN(S(C)(=O)=O)C2 [Compound I-57]
The IC50 of the first is lower: 0.05 to 0.25 µM for the first, 0.25 to 1 µM for the second.

`Cc1c(CN2CCC(Nc3ncnc4sc(CC(F)(F)F)cc34)CC2)ccc2c1cc(C#N)n2CCN1CC2CN(S(C)(=O)=O)CC2C1` (stereo not shown) [Compound I-55] and `Cc1c(CN2CCC(Nc3ncnc4sc(CC(F)(F)F)cc34)CC2)ccc2c1cc(C#N)n2CCC1CCN(S(C)(=O)=O)C(C)C1` (stereo not shown) [Compound I-59] fall in the same range of IC50: 0.25 to 1 µM for the first, 0.25 to 1 µM for the second.

Compared with `CNS(=O)(=O)N1CCN([C@H](C)Cn2c(C#N)cc3c(C)c(CN4CCC(Nc5ncnc6sc(CC(F)(F)F)cc56)CC4)ccc32)CC1` [Compound I-66], `CNS(=O)(=O)N1CCN(C(C)Cn2c(C#N)cc3c(C)c(CN4CCC(Nc5ncnc6sc(CC(F)(F)F)cc56)CC4)ccc32)CC1` (stereo not shown) [Compound I-128] is lower in IC50: 0.25 to 1 µM for the first, 0.05 to 0.25 µM for the second. The second is the more potent here.

`Cc1c(CN2CCC(Nc3ncnc4sc(CC(F)(F)F)cc34)CC2)ccc2c1cc(C#N)n2C[C@H](C)N1CCN(C(=O)C(F)(F)F)CC1` [Compound I-118] and `Cc1c(CN2CCC(Nc3ncnc4sc(CC(F)(F)F)cc34)CC2)ccc2c1cc(C#N)n2C[C@H](C)N1CCC(NP(C)(C)=O)CC1` [Compound I-157] fall in the same range of IC50: 0.25 to 1 µM for the first, 0.25 to 1 µM for the second.

Compared with `Cc1c(CN2CCC(Nc3ncnc4sc(CC(F)(F)F)cc34)CC2)ccc2c1cc(C#N)n2CC(C)N1CCC(NS(C)(=O)=O)C1` (stereo not shown) [Compound I-162], `COc1nc(NC2CCN(Cc3ccc4c(cc(C#N)n4C[C@H](C)N4CCC(S(C)(=O)=O)CC4)c3C)CC2)c2cc(CC(F)(F)F)sc2n1` [Compound I-218] is lower in IC50: 0.05 to 0.25 µM for the first, less than 0.05 µM for the second.

`Cc1c(CN2CCC(Nc3nc(C4CC4)nc4sc(CC(F)(F)F)cc34)CC2)ccc2c1cc(C#N)n2C[C@H](C)N1CCN(S(C)(=O)=O)CC1` [Compound I-173] and `Cc1nc(NC2CCN(Cc3ccc4c(cc(C#N)n4C[C@@H](C)N4CCN(S(C)(=O)=O)CC4)c3C)CC2)c2cc(CC(F)(F)F)sc2n1` [Compound I-201] fall in the same range of IC50: 0.25 to 1 µM for the first, 0.25 to 1 µM for the second.

First: CNc1nc(NC2CCN(Cc3ccc4c(cc(C#N)n4C[C@H](C)N4CCN(S(=O)(=O)NC)CC4)c3C)CC2)c2cc(CC(F)(F)F)sc2n1 [Compound I-185]
Second: CNc1nc(NC2CCN(Cc3ccc4c(cc(C#N)n4CCN4CCN(S(C)(=O)=O)[C@H](C#N)C4)c3C)CC2)c2cc(CC(F)(F)F)sc2n1 [Compound I-209]
The IC50 of the first is higher: 0.05 to 0.25 µM for the first, less than 0.05 µM for the second. The second is the more potent here.

Compared with `CCS(=O)(=O)NC12CC(Cn3c(C#N)cc4c(C)c(CN5CCC(Nc6ncnc7sc(CC(F)(F)F)cc67)CC5)ccc43)(C1)C2` [II-4], `Cc1c(CN2CCC(Nc3ncnc4sc(CC(F)(F)F)cc34)CC2)ccc2c1cc(C#N)n2CC12CC(NC(=O)C3CCCC(=O)N3)(C1)C2` (stereo not shown) [II-35] is lower in IC50: 0.25 to 1 µM for the first, less than 0.05 µM for the second. The second is the more potent here.

`Cc1c(CN2CCC3(CCN(c4ncnc5sc(CC(F)(F)F)cc45)C3)C2)ccc2[nH]c(C#N)cc12` (stereo not shown) [III-30a] and `CS(=O)(=O)Nc1ccc(CN2CCC3(CCN(c4ncnc5sc(CC(F)(F)F)cc45)C3)C2)cc1` (stereo not shown) [III-38] fall in the same range of IC50: 0.05 to 0.25 µM for the first, 0.05 to 0.25 µM for the second.

In the case of `CS(=O)(=O)N[C@H]1CC[C@H](CN2CCC3(CCN(c4ncnc5sc(CC(F)(F)F)cc45)C3)C2)CC1` (stereo partly shown) [III-48], the IC50 is reported as 0.25 to 1 µM.
